Patent US20250325699A1, “POLYPEPTIDES AND METHODS OF USE” (Aldevron, LLC, priority 2022, published 2025)

Tested on: HepG2 cells
Assay: In vitro transfection of HepG2 cells, normalized luciferase activity
Assay type: cell-based
Settings: 48 hours
Experimental: FIGS. 4A and 4B are graphs showing normalized luciferase activity in HepG2 cells 48 hours after in vitro transfection. Lipid nanoparticles were formed with RALA-NLS polypeptides and 250 ng or 500 ng C3-fLuc1157 DNA at a molar ratio of 700, 1400, 2100, or 2800. […]
FIGS. 4A and 4B are graphs showing normalized luciferase activity in HepG2 cells 48 hours after in vitro transfection. Lipid nanoparticles were formed with RALA-NLS polypeptides and 250 ng or 500 ng C^3-fLuc1157 DNA at a molar ratio of 700, 1400, 2100, or 2800.

Sequence: WEARLARALARALARHLARALARALRACEAPKKKRKV [RALA-NLS]
- transfection efficiency in slightly cationic LNPs (20% DOTAP) (FIG. 4B (20% DOTAP) versus FIG. 4A (DOPE)): more pronounced
- transfection with higher amounts of DNA (500 ng) as compared to lower amounts (250 ng) (FIGS. 4A and 4B): more efficient transfection
- transfection improvement compared to LNP without polypeptide (LNP with 700× polypeptide (molar ratio to C^3-fLuc1157 DNA)): ~20 fold
- transfection improvement compared to LNP without polypeptide (LNP with 1400× polypeptide (molar ratio to C^3-fLuc1157 DNA)): ~35 fold
- transfection improvement compared to LNP without polypeptide (LNP with 2100× polypeptide (molar ratio to C^3-fLuc1157 DNA)): ~50 fold
- transfection improvement compared to LNP without polypeptide (LNP with 2800× polypeptide (molar ratio to C^3-fLuc1157 DNA)): ~65 fold
